Measurements from publication PMC2678238 (Journal of biological inorganic chemistry : JBIC : a …, 2009).
Like-named read-outs stand apart in the source and are kept apart here.

Assays:
Co(II)-loaded EcMetAP-I [1] = target: T1, Co(II)-loaded EcMetAP-I (Escherichia coli, UniProt P0AE18); assay: Enzymatic assay of MetAP; assay type: biochemical
Co(II)-loaded EcMetAP-I [2] = target: T1, Co(II)-loaded EcMetAP-I; assay: Isothermal titration calorimetry; assay type: binding; details: for n (stoichiometry): ITC fit; for TΔS / ΔG: from ITC via Gibbs relationship
Mn(II)-loaded EcMetAP-I [3] = target: T2, Mn(II)-loaded EcMetAP-I (Escherichia coli, UniProt P0AE18); assay: Isothermal titration calorimetry; assay type: binding; details: for fold stronger binding (Kd) to Co(II)-loaded than Mn(II)-loaded EcMetAP-I: ITC Kd Mn(II)-loaded vs Co(II)-loaded EcMetAP-I; for n (stoichiometry): ITC fit
Mn(II)-loaded PfMetAP-II [4] = target: T3, Mn(II)-loaded PfMetAP-II (Pyrococcus furiosus, UniProt P56218); assay: Isothermal titration calorimetry; assay type: binding; details: for fold stronger binding (Kd) to Co(II)-loaded than Mn(II)-loaded PfMetAP-II: ITC Kd Mn(II)-loaded vs Co(II)-loaded PfMetAP-II; for n (stoichiometry): ITC fit
Mn(II)-loaded HsMetAP-II = details: in words; cited from earlier work
Co(II)-loaded HsMetAP-II = details: in words; cited from earlier work
Co(II)-loaded PfMetAP-II [5] = target: T4, Co(II)-loaded PfMetAP-II (Pyrococcus furiosus, UniProt P56218); assay: Isothermal titration calorimetry; assay type: binding; details: for n (stoichiometry): ITC fit; for TΔS / ΔG: from ITC via Gibbs relationship
Co(II)-loaded PfMetAP-II [6] = target: T4, Co(II)-loaded PfMetAP-II; assay: Enzymatic assay of MetAP; assay type: biochemical
Mn(II)-loaded PfMetAP-II [7] = target: T3, Mn(II)-loaded PfMetAP-II; assay: Enzymatic assay of MetAP; assay type: biochemical
Mn(II)-loaded EcMetAP-I [8] = target: T2, Mn(II)-loaded EcMetAP-I; assay: Enzymatic assay of MetAP; assay type: biochemical
[9] = [MnMn(EcMetAP-I)], from ITC via Gibbs relationship
[10] = [MnMn(PfMetAP-II)], from ITC via Gibbs relationship

T3 sequence (P56218 whole entry): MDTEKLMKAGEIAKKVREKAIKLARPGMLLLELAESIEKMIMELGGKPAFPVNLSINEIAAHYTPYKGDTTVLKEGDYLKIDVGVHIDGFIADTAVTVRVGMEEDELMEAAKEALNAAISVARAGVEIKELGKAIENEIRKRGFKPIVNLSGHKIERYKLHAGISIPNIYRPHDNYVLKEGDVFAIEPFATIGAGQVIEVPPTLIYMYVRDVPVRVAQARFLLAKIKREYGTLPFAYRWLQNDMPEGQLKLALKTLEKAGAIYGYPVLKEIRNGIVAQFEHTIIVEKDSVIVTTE
T4 sequence (P56218 whole entry): as above
T1 sequence (P0AE18 whole entry): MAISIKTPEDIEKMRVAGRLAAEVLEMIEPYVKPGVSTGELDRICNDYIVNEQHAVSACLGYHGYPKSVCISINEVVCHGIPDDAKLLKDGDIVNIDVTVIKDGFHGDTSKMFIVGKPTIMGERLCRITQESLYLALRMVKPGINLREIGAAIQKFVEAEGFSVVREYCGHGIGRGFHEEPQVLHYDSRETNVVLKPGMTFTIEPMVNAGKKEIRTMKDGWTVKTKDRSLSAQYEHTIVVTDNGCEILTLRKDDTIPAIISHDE
T2 sequence (P0AE18 whole entry): as above

Q: Which results are given for `CCSCC[C@@H](N)C(O)C(=O)N[C@@H](C)c1cccc2ccccc12` (mixture of isomers) [A-311263, ((2RS,3R)-3-amino-2-hydroxy-5-ethylthio)pentanoyl-((S)-(−)-(1-naphthyl)ethyl)amide]?
A: Ki (Co(II)-loaded EcMetAP-I [1]; [CoCo(EcMetAP-I)], competitive inhibition fit, substrate MGMM): 3 µM; n (stoichiometry) (Co(II)-loaded EcMetAP-I [2]; [CoCo(EcMetAP-I)]): 1; Kd (Co(II)-loaded EcMetAP-I [2]; [CoCo(EcMetAP-I)], ITC, 25.0 °C, HEPES pH 7.5): 2.4 ± 0.1 µM; TΔS (Co(II)-loaded EcMetAP-I [2]; [CoCo(EcMetAP-I)]): 33000 J/mol; ΔG (Co(II)-loaded EcMetAP-I [2]; [CoCo(EcMetAP-I)]): -32 kJ/mol; fold stronger binding (Kd) to Co(II)-loaded than Mn(II)-loaded EcMetAP-I (Mn(II)-loaded EcMetAP-I [3]): approximately 21 fold; n (stoichiometry) (Mn(II)-loaded EcMetAP-I [3]; [MnMn(EcMetAP-I)]): 1; Kd (Mn(II)-loaded EcMetAP-I [3]; [MnMn(EcMetAP-I)], ITC, 25.0 °C, HEPES pH 7.5): 50 ± 5 µM; TΔS (Mn(II)-loaded EcMetAP-I [3]; [9]): 6000 J/mol; ΔG (Mn(II)-loaded EcMetAP-I [3]; [9]): -24.5 kJ/mol; fold stronger binding (Kd) to Co(II)-loaded than Mn(II)-loaded PfMetAP-II (Mn(II)-loaded PfMetAP-II [4]): approximately 58 fold; n (stoichiometry) (Mn(II)-loaded PfMetAP-II [4]; [MnMn(PfMetAP-II)]): 1; Kd (Mn(II)-loaded PfMetAP-II [4]; [MnMn(PfMetAP-II)], ITC, 25.0 °C, HEPES pH 7.5): 26 ± 5 µM; ΔG (Mn(II)-loaded PfMetAP-II [4]; [10]): -26.1 kJ/mol; inhibition of Mn(II)-loaded HsMetAP-II (Mn(II)-loaded HsMetAP-II): equally well; inhibition of Co(II)-loaded HsMetAP-II (Co(II)-loaded HsMetAP-II): equally well; n (stoichiometry) (Co(II)-loaded PfMetAP-II [5]; [CoCo(PfMetAP-II)]): 1; Kd (Co(II)-loaded PfMetAP-II [5]; [CoCo(PfMetAP-II)], ITC, 25.0 °C, HEPES pH 7.5): 450 ± 110 nM; TΔS (Co(II)-loaded PfMetAP-II [5]; [CoCo(PfMetAP-II)]): 21000 J/mol; ΔG (Co(II)-loaded PfMetAP-II [5]; [CoCo(PfMetAP-II)]): -36.2 kJ/mol; Ki (Co(II)-loaded PfMetAP-II [6]; [CoCo(PfMetAP-II)], competitive inhibition fit, substrate MGMM): 2000 nM

Q: Which IC50 (Co(II)-loaded EcMetAP-I [1]) does the source give for `c1ccc2cc(CSc3nnc[nH]3)ccc2c1` [A-310840, 3-((2-naphthylmethyl)sulfanyl)-4H-1,2,4-triazole] here?
A: 44 µM

Q: And the Ki (Co(II)-loaded EcMetAP-I [1])?
A: 8 µM

Q: What about the Kd (Co(II)-loaded EcMetAP-I [2]) of the same compound?
A: 10 ± 0.1 µM

Q: What about the “n (stoichiometry)” value (Co(II)-loaded EcMetAP-I [2]; [CoCo(EcMetAP-I)]) of the same compound?
A: 1

Q: What about the TΔS (Co(II)-loaded EcMetAP-I [2]; [CoCo(EcMetAP-I)]) of the same compound?
A: 20000 J/mol

Q: And the ΔG (Co(II)-loaded EcMetAP-I [2]; [CoCo(EcMetAP-I)])?
A: -28.5 kJ/mol

Q: What about the Kd (Mn(II)-loaded EcMetAP-I [3]) of the same compound?
A: 714 ± 10 µM

Q: And the “fold stronger binding (Kd) to Co(II)-loaded than Mn(II)-loaded EcMetAP-I” value (Mn(II)-loaded EcMetAP-I [3])?
A: approximately 71 fold

Q: What about the “n (stoichiometry)” value (Mn(II)-loaded EcMetAP-I [3]; [MnMn(EcMetAP-I)]) of the same compound?
A: 1

Q: And the ΔG (Mn(II)-loaded EcMetAP-I [3]; [9])?
A: -17.9 kJ/mol

Q: What about the Kd (Mn(II)-loaded PfMetAP-II [4]) of the same compound?
A: 666 ± 10 µM

Q: What about the “fold stronger binding (Kd) to Co(II)-loaded than Mn(II)-loaded PfMetAP-II” value (Mn(II)-loaded PfMetAP-II [4]) of the same compound?
A: approximately 333 fold

Q: What about the “n (stoichiometry)” value (Mn(II)-loaded PfMetAP-II [4]; [MnMn(PfMetAP-II)]) of the same compound?
A: 1

Q: And the TΔS (Mn(II)-loaded PfMetAP-II [4]; [10])?
A: 17000 J/mol

Q: What about the ΔG (Mn(II)-loaded PfMetAP-II [4]; [10]) of the same compound?
A: -18.1 kJ/mol

Q: What about the IC50 (Mn(II)-loaded PfMetAP-II [7]) of the same compound?
A: 1 mM

Q: What about the Ki (Mn(II)-loaded PfMetAP-II [7]) of the same compound?
A: 440 µM

Q: And the “fold less potent (IC50) for Mn(II)-loaded than Co(II)-loaded PfMetAP-II” value (Mn(II)-loaded PfMetAP-II [7]; IC50 Mn(II)-loaded vs Co(II)-loaded PfMetAP-II)?
A: approximately 67 fold

Q: And the IC50 (Mn(II)-loaded EcMetAP-I [8])?
A: 1 mM

Q: And the Ki (Mn(II)-loaded EcMetAP-I [8])?
A: 750 µM

Q: And the “fold less potent (IC50) for Mn(II)-loaded than Co(II)-loaded EcMetAP-I” value (Mn(II)-loaded EcMetAP-I [8]; IC50 Mn(II)-loaded vs Co(II)-loaded EcMetAP-I)?
A: approximately 23 fold

Q: And the “inhibition of Co(II)-loaded HsMetAP-II” value (Co(II)-loaded HsMetAP-II)?
A: strongly inhibits

Q: What about the Kd (Co(II)-loaded PfMetAP-II [5]) of the same compound?
A: 2000 ± 100 nM

Q: What about the “n (stoichiometry)” value (Co(II)-loaded PfMetAP-II [5]; [CoCo(PfMetAP-II)]) of the same compound?
A: 1

Q: What about the TΔS (Co(II)-loaded PfMetAP-II [5]; [CoCo(PfMetAP-II)]) of the same compound?
A: 27000 J/mol

Q: What about the ΔG (Co(II)-loaded PfMetAP-II [5]; [CoCo(PfMetAP-II)]) of the same compound?
A: -32.5 kJ/mol

Q: And the IC50 (Co(II)-loaded PfMetAP-II [6])?
A: 15 µM

Q: What about the Ki (Co(II)-loaded PfMetAP-II [6]) of the same compound?
A: 3000 nM
